Series [1] can be described thus: Absorbance at photostationary state (PSS) under simulated sunlight or 365 nm light. It is filed as physicochemical. The arrangement: λ max: unit not given here. As to conditions: for Absorbance at PSS, 365 nm: 365 nm light source; for Absorbance at PSS, 365 nm / Absorbance at PSS, full / Absorbance at PSS, +UV / λ max: 2.0×10^−5 M in triglyme; for sensitivity index: ratio of PSS under 365 nm light to PSS under full spectrum light (without UV blocking film); for Absorbance at PSS, full: simulated sunlight (QSUN solar simulator), no UV blocking film; for Absorbance at PSS, +UV: simulated sunlight with UV blocking film (cutoff 370 nm); for λ max: wavelength of maximum absorbance in the visible range, ring-closed isoform. In outline: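 Compounds at 2.0×10^−5 M in triglyme, photofaded with visible light, then irradiated with simulated sunlight (xenon arc) or 365 nm light until the UV/Vis spectrum stabilized. Also irradiated through a UV-blocking film (370 nm cutoff); sensitivity index is PSS under 365 nm divided by PSS under full spectrum.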

Series [2] can be described thus: Solubility in indicated solvent. It is filed as physicochemical. As to conditions: % wt soluble in triglyme. The text has this:
A compound with greater solubility allows for a formulation or material with a greater concentration of coloured molecule to be incorporated into a composition. This may allow for increasing the contrast ratio for a compound with a lesser absorbance at PSS. Inclusion of a solubilizing group in a compound according to various embodiments of the invention may increase solubility. Examples of solubilizing groups may include alkoxy or siloxy groups.

Data on 17 compounds can be found in patent US10072023B2, “Diarylethene compounds and uses thereof” (SWITCH MATERIALS, INC., priority 2011, dated 2018).

Regarding `CCOCCOCCOCCOC(CC)(CC)c1ccc(-c2sc(-c3ccc(C(C)(C)C)s3)cc2C2=C(c3cc(-c4ccc(C(C)(C)C)s4)sc3-c3ccc(C(CC)(CC)OCCOCCOCCOCC)s3)C(F)(F)C(F)(F)C2(F)F)s1` [S128, 13,13′-(3′,3″″-(perfluorocyclopent-1-ene-1,2-diyl)bis(5″-(tert-butyl)-[2,2′: 5′,2″-terthiophene]-5,3′-diyl))bis(13-ethyl-3,6,9,12-tetraoxapentadecane)], in series [1], the “Absorbance at PSS, 365 nm” value was 0.403; the sensitivity index was 1.53; the “Absorbance at PSS, full” value is listed as 0.264; the “Absorbance at PSS, +UV” value was 0.224. The compound further showed a λ max in series [1] of 648. The compound further registered a Solubility in series [2] greater than 25 % wt.
In the case of `COCCOCCOCCOc1ccc(-c2sc(-c3ccc(C(C)(C)C)s3)cc2C2=C(c3cc(-c4ccc(C(C)(C)C)s4)sc3-c3ccc(OCCOCCOCCOC)cc3)C(F)(F)C(F)(F)C2(F)F)cc1` [S108], in series [1], the “Absorbance at PSS, 365 nm” value was 0.374; the sensitivity index is 1.28; the “Absorbance at PSS, full” value is 0.292; the “Absorbance at PSS, +UV” value was 0.215. This compound also yielded a λ max in series [1] of 645. The same compound registered a Solubility in series [2] greater than 25 % wt.
On to `CC(C)(C)c1ccc(-c2cc(C3=C(c4cc(-c5ccc(C(C)(C)C)cc5)sc4-c4cccs4)C(F)(F)C(F)(F)C3(F)F)c(-c3cccs3)s2)cc1` [S049, 3,3″-(perfluorocyclopent-1-ene-1,2-diyl)bis(5-(4-(tert-butyl)phenyl)-2,2′-bithiophene)], for which, in series [1], the “Absorbance at PSS, 365 nm” value is given as 0.217; the sensitivity index was 2.49; the “Absorbance at PSS, full” value is listed as 0.087; the “Absorbance at PSS, +UV” value was 0.044. In series [1], the λ max is given as 625. This compound also had a Solubility in series [2] of 2 % wt.
Consider `CC(C)(C)c1ccc(-c2sc(-c3ccccc3)cc2C2=C(c3cc(-c4ccccc4)sc3-c3ccc(C(C)(C)C)cc3)C(F)(F)C(F)(F)C2(F)F)cc1` [S057, 3,3′-(perfluorocyclopent-1-ene-1,2-diyl)bis(2-(4-tert-butylphenyl)-5-phenylthiophene)], for which, in series [1], the “Absorbance at PSS, 365 nm” value is listed as 0.204; the sensitivity index is given as 2.58; the “Absorbance at PSS, full” value was 0.079; the “Absorbance at PSS, +UV” value is recorded as 0.033. Also, the λ max in series [1] is recorded as 610. This compound returned a Solubility in series [2] of 1.5 % wt.
In the case of `CC(C)(C)c1ccc(-c2sc(-c3cccs3)cc2C2=C(c3cc(-c4cccs4)sc3-c3ccc(C(C)(C)C)cc3)C(F)(F)C(F)(F)C2(F)F)cc1` [S052, 4,4″-(perfluorocyclopent-1-ene-1,2-diyl)bis(5-(4-(tert-butyl)phenyl)-2,2′-bithiophene)], in series [1], the “Absorbance at PSS, 365 nm” value is listed as 0.318; the sensitivity index is given as 1.54; the “Absorbance at PSS, full” value is given as 0.206; the “Absorbance at PSS, +UV” value is given as 0.116. This compound also yielded a λ max in series [1] of 630. In addition, the Solubility in series [2] is 1 % wt.
`c1ccc(-c2nc(-c3nc(-c4ccccc4)sc3-c3nc(-c4ccccc4)sc3-c3ccccc3)c(-c3ccccc3)s2)cc1` [S032, 2,2′,2″,5,5″-pentaphenyl-4,4′:5′,4″-terthiazole]: in series [1], the “Absorbance at PSS, 365 nm” value was 0.594; the sensitivity index is given as 18.56; the “Absorbance at PSS, full” value is on record as 0.032; the “Absorbance at PSS, +UV” value is 0.008. Further, the λ max in series [1] is listed as 600. Besides, the Solubility in series [2] is 1 % wt.
Consider `COCCOCCOCCOC(C)(C)c1ccc(-c2cc(C3=C(c4cc(-c5ccc(C(C)(C)OCCOCCOCCOC)cc5)sc4-c4ccc(C(C)(C)C)cc4)C(F)(F)C(F)(F)C3(F)F)c(-c3ccc(C(C)(C)C)cc3)s2)cc1` [S068, 12,12′-((4,4′-(perfluorocyclopent-1-ene-1,2-diyl)bis(5-(4-(tert-butyl)phenyl)thiophene-4,2-diyl))bis(4,1-phenylene))bis(12-methyl-2,5,8,11-tetraoxatridecane)], for which, in series [1], the “Absorbance at PSS, 365 nm” value is on record as 0.239; the sensitivity index is on record as 2.15; the “Absorbance at PSS, full” value is 0.111; the “Absorbance at PSS, +UV” value is 0.051. The compound also returned a λ max in series [1] of 615. Besides, the Solubility in series [2] is recorded as greater than 20 % wt.
As to `CCCCCCCCc1ccc(-c2oc3ccccc3c2C2=C(c3c(-c4ccc(CCCCCCCC)cc4)oc4ccccc34)C(F)(F)C(F)(F)C2(F)F)cc1` [S079, 1,2-bis(2-(4-n-octylphenyl)-1-benzofuran-3-yl)perfluorocyclopentene], in series [1], the “Absorbance at PSS, 365 nm” value was 0.17; the sensitivity index is on record as 7.39; the “Absorbance at PSS, full” value is reported as 0.023; the “Absorbance at PSS, +UV” value is recorded as 0.008. In series [1], this compound came in with a λ max of 490. Further, the Solubility in series [2] was 8-11 % wt.
For `Cc1cc(-c2cc(C3=C(c4cc(-c5cc(C)c(C)s5)sc4-c4cc(C)c(C)s4)C(F)(F)C(F)(F)C3(F)F)c(-c3cc(C)c(C)s3)s2)sc1C` [S011], in series [1], the “Absorbance at PSS, 365 nm” value is listed as 0.363; the sensitivity index is 1.81; the “Absorbance at PSS, full” value is listed as 0.201; the “Absorbance at PSS, +UV” value was 0.142. The compound also showed a λ max in series [1] of 655. The compound also registered a Solubility in series [2] of 3 % wt.
In the case of `COCCC[Si](CCCOC)(CCCOC)c1ccc(-c2cc(C3=C(c4cc(-c5ccc([Si](CCCOC)(CCCOC)CCCOC)s5)sc4-c4ccc([Si](CCCOC)(CCCOC)CCCOC)s4)C(F)(F)C(F)(F)C3(F)F)c(-c3ccc([Si](CCCOC)(CCCOC)CCCOC)s3)s2)s1` [S138], in series [1], the “Absorbance at PSS, 365 nm” value is given as 0.337; the sensitivity index is 1.10; the “Absorbance at PSS, full” value is reported as 0.306; the “Absorbance at PSS, +UV” value was 0.262. In series [1], this compound registered a λ max of 650. This compound returned a Solubility in series [2] greater than 20 % wt.
As for `COc1ccc(-c2cc(C3=C(c4cc(-c5ccc(OC)s5)sc4-c4ccc(OC)s4)C(F)(F)C(F)(F)C3(F)F)c(-c3ccc(OC)s3)s2)s1` [S020, 3′,3″″-(perfluorocyclopent-1-ene-1,2-diyl)bis(5,5″-dimethoxy-2,2′:5′,2″-terthiophene)], in series [1], the “Absorbance at PSS, 365 nm” value was 0.244; the sensitivity index is 2.12; the “Absorbance at PSS, full” value was 0.115; the “Absorbance at PSS, +UV” value was 0.085. This compound also returned a λ max in series [1] of 665. Further, in series [2], the Solubility is given as 3 % wt.
Regarding `Cc1ccc(-c2sc(-c3cccs3)cc2C2=C(c3cc(-c4cccs4)sc3-c3ccc(C)s3)C(F)(F)C(F)(F)C2(F)F)s1` [S027, 3′,3″″-(perfluorocyclopent-1-ene-1,2-diyl)bis(5-methyl-2,2′:5′,2″-terthiophene)], in series [1], the “Absorbance at PSS, 365 nm” value is listed as 0.281; the sensitivity index was 1.80; the “Absorbance at PSS, full” value is recorded as 0.156; the “Absorbance at PSS, +UV” value is on record as 0.116. Further, the λ max in series [1] is 645.
In the case of `FC1(F)C(c2cc(-c3ccc(Cl)cc3)sc2-c2ccc(Cl)cc2)=C(c2cc(-c3ccc(Cl)cc3)sc2-c2ccc(Cl)cc2)C(F)(F)C1(F)F` [S056, 3,3′-(perfluorocyclopent-1-ene-1,2-diyl)bis(2,5-bis(4-chlorophenyl)thiophene)], in series [1], the “Absorbance at PSS, 365 nm” value is 0.194; the sensitivity index was 2.73; the “Absorbance at PSS, full” value is listed as 0.071; the “Absorbance at PSS, +UV” value is given as 0.026. In series [1], this compound registered a λ max of 610.
As to `COCCOc1ccc(-c2sc(-c3ccc(C(C)(C)C)s3)cc2C2=C(c3cc(-c4ccc(C(C)(C)C)s4)sc3-c3ccc(OCCOC)cc3)C(F)(F)C(F)(F)C2(F)F)cc1` [S104, 4,4″-(perfluorocyclopent-1-ene-1,2-diyl)bis(5′-(tert-butyl)-5-(4-(2-methoxyethoxy)phenyl)-2,2′-bithiophene)], in series [1], the “Absorbance at PSS, 365 nm” value is recorded as 0.383; the sensitivity index is on record as 1.28; the “Absorbance at PSS, full” value is given as 0.299; the “Absorbance at PSS, +UV” value is given as 0.203. The λ max in series [1] was 645.
As to `CC(C)(C)c1ccc(-c2sc(-c3ccc(C(C)(C)O)cc3)cc2C2=C(c3cc(-c4ccc(C(C)(C)O)cc4)sc3-c3ccc(C(C)(C)C)cc3)C(F)(F)C(F)(F)C2(F)F)cc1` [S067, 2,2′-((4,4′-(perfluorocyclopent-1-ene-1,2-diyl)bis(5-(4-(tert-butyl)phenyl)thiophene-4,2-diyl))bis(4,1-phenylene))bis(propan-2-ol)], in series [1], the “Absorbance at PSS, 365 nm” value is 0.182; the sensitivity index is 2.68; the “Absorbance at PSS, full” value was 0.068; the “Absorbance at PSS, +UV” value was 0.03. This compound showed a λ max in series [1] of 615.
On to `CC(C)(C)COc1ccc(-c2cc(C3=C(c4cc(-c5ccc(OCC(C)(C)C)cc5)sc4-c4ccc(OCC(C)(C)C)cc4)C(F)(F)C(F)(F)C3(F)F)c(-c3ccc(OCC(C)(C)C)cc3)s2)cc1` [S095, 3,3′-(perfluorocyclopent-1-ene-1,2-diyl)bis(2,5-bis(4-(neopentyloxy)phenyl)thiophene)], for which, in series [1], the “Absorbance at PSS, 365 nm” value was 0.279; the sensitivity index is given as 1.74; the “Absorbance at PSS, full” value was 0.16; the “Absorbance at PSS, +UV” value is 0.086. This compound came in with a λ max in series [1] of 625.
The corresponding values for `COc1ccc(-c2oc3ccc(OC)cc3c2C2=C(c3c(-c4ccc(OC)cc4)oc4ccc(OC)cc34)C(F)(F)C(F)(F)C2(F)F)cc1` [S083] are 0.167, 7.26, 0.023, 0.008 and 550.
